In patent US8975234B2, “Anti-bacterial infection, inflammation, and leukemia composition and use thereof” (priority 2011, dated 2015):

Experiments:
K-562 cells [1] = test: ROS test (DCF-DA); format: cell-based, human; conditions: 40 μM; 2 hours
Description: A radical specific fluorescent dye, 2′,7′-dichlorofluorescein (DCF-DA) was used to detect H2O2/NO-based radicals or O2— in cells respectively.
A total of 3 mL cell solution at the concentration of 1×10^6 K-562 cells per mL was cultured with 6 cm cell culture plates in an incubator supplied with 5% CO2 at 37° C. for 30 minutes so that cells could adapt to the environment. Tellimagrandin II solutions of different concentrations were added by order so that the final concentrations are 0, 30, 40 and 50 μM respectively. The solution was placed in incubator with 5% CO2 at 37° C. for 2 hours before being centrifuged at 3,500 rpm at 4° C. for 5 minutes and then being rinsed by PBS once. 2′,7′-dichlorofluorescein (DCF-DA) was added before the solution was put into dark incubator for 45 minutes and then rinsed by PBS once again. Finally, 1 mL PBS was used to resuspend the cells before BD FACScan was used to detect the fluorescent signal.

[2] = tested on: human erythromyeloblastoid leukemia K-562 cell; test: Cell viability WST-1 assay; format: cell-based
Description: Quantitative cell viability assessed using WST-1 assay. WST-1 is a reagent which produces a highly water soluble formazan upon metabolically active cells, allowing a direct colorimetric measurement of cell viability.
The K-562 cells were plated in a 96-well culture plate at a seeding density of 6,000 cells/well (100 μL) and incubated at 37° C. with 5% CO2 for 16˜18 hours. Cells were treated with 20 μL Tellimagrandin II to make the final concentrations of 0, 20, 40, 60 and 80 μM, and incubated at 37° C. with 5% CO2 for 24 and 48 hours. Cells without Tellimagrandin II treatment used as a control. Added 12 μL of WST-1 reagent (10:1) to each well of the plate and mixed well, then incubated at 37° C. in a 5% CO2 incubator for 2 hours. After incubation, the absorbance at 450 nm (test wavelength) and 630 nm (reference wavelength) were measured. Data was calculated by subtracting the 630 nm background absorbance from the 450 nm measurement.

K-562 cells [3] = test: Apoptosis detection test (TUNEL); format: cell-based, human; conditions: 30 μM, 48 hours
Description: TUNEL test was used to detect any DNA fragmentation to determine if cell enters apoptosis process.
A total of 10 mL cell solution at the concentration of 1×10^6K-562 cells per mL was cultured with 10 cm cell culture dishes in an incubator supplied with 5% CO2 at 37° C. for 30 minutes so that cells could adapt to the environment. Tellimagrandin II solutions of different concentrations were added by order so that the final concentrations are 0, 10, 20, 30, 40 and 50 μM respectively. The solution was placed in incubator with 5% CO2 at 37° C. for 48 hours before being centrifuged at 3,500 rpm at 4° C. for 5 minutes. After removing the supernatant, the cells were rinsed by PBS once. A total of 1 mL 1% Trioxane (diluted from 10% Trioxane solution with PBS) was added and the solution was left to react at room temperature for 30 minutes to one hour. Then, the solution was centrifuged at 3,500 rpm at 4° C. for 5 minutes. After removing the supernatant, 70% ethanol was added and the solution was placed at −20° C. for 16-18 hours for cell fixation.
After cell fixation, the solution was centrifuged at 400 rpm at 4° C. for 10 minutes before removing the supernatant. […] Finally, 1 mL PBS was used to resuspend the cells before BD FACS can was used to detect the fluorescent signal and the quantitative results are in FIG. 15. […]

[4] = tested on: Staphylococcus aureus biofilm formation; test: Biofilm formation; format: cell-based; conditions: 40 μg/mL Tellimagrandin II
Description: Bacteria was grown overnight (16˜18 hours) on agar plate. Then, collected and re-suspended in 0.45% sterile PBS and diluted in sterile PBS to final optical density at 600 nm (OD600) of 0.1. Polystyrene 96-well microtitre plates were filled with 150 μL of culture medium and 20 μL of bacterial solution per well. The cultures were allowed to stand at 37° C. for 18 hours. After the incubation period, cultures were removed, and microtitre plate wells were gently washed three times with 300 μL of sterile PBS to remove loosely associated bacteria, then dried at 60° C. oven for 1 hour. Samples were stained by the addition of the 2% dye solution (150 μL) to each well above the initial inoculation level and incubated for 15 minutes. The plate was then washed in fresh water. The intensity of staining was measured after the addition of 95% alcohol (150 μL) to each dry well. The samples were incubated at room temperature for 30 min, after which the OD517 values were measured on a plate reader.
Optical density cut-off value (ODc)=average OD of negative control+3× standard deviation (SD) of negative control (The interpretation of biofilm production was done according to the criteria of Srdjan et al. (APMIS 115: 891-9, 2007). MRSA 17199 were used as control strain.

[5] = tested on: penicillin-binding protein 2a (PBP2a); test: Western blotting analysis of PBP2a expression; format: cell-based, Staphylococcus aureus; conditions: 40 μg/mL alone
Description: Protein samples (15 μg) were mixed with 5× Sample buffer and boiled in 1× Sample buffer for 5 min and then cooled quickly that proteins be denatured to their constituent polypeptide chains. Equal amounts of protein (15 μg) were separated on 10% SDS-PAGE at 17 mA for 2 hours, and transferred to PVDF membrane using wet transfer procedure. The PVDF membrane was blocked for half hour at room temperature in t-BST buffer containing 5% (w/v) non-fat dry milk to prevent nonspecific binding then probed with primary antibodies (Rabbit-anti-penicillin binding protein, dilution 1:5000) in 5% non-fat dry milk for 16˜18 hours at 4° C. Anti-Groel was used as internal controls (dilution 1:80,000; purchased from Sigma). After washing with t-BST three times for 5 minutes each, the membrane was incubated for half hour at room temperature with horseradish peroxidase (HRP)-conjugated secondary antibodies in 5% (w/v) non-fat dry milk. The membrane was washed three times for 5 minutes each, followed by using an enhanced chemiluminescence system and exposed to film.

## O=C(OC1O[C@@H]2COC(=O)c3cc(O)c(O)c(O)c3-c3c(cc(O)c(O)c3O)C(=O)O[C@H]2[C@H](OC(=O)c2cc(O)c(O)c(O)c2)[C@H]1OC(=O)c1cc(O)c(O)c(O)c1)c1cc(O)c(O)c(O)c1 (some centres unmarked) [Tellimagrandin II]
K-562 cells [1]
  ROS in K-562 cells: observed to increase
[2]; K562, 24 hr
  IC50: 57 µM
[2]; K562, 48 hr
  IC50: 48.1 µM
K-562 cells [3]
  DNA fragmentation, TUNEL fluorescent signal: fluorescent signals were detected
[4]; ODc 0.167
  OD (average OD value of the strain − ODc): 0.039
[4]; biofilm staining of strain
  Average OD value: 0.206
[4]; biofilm staining of strain, replicate 1
  Absorbance 1: 0.153
[4]; biofilm staining of strain, replicate 2
  Absorbance 2: 0.259
[4]; biofilm staining of strain, replicate 3
  Absorbance 3: 0.167
[4]; biofilm staining of strain, replicate 4
  Absorbance 4: 0.246
[5]
  expression of penicillin-binding protein 2a (PBP2a): inhibit the expression
